These are literature values, as cited in article PMC10406726, “Development, scrutiny, and modulation of transient reporter gene assays of the xenobiotic metabolism pathway in zebrafish hepatocytes” (Cell Biology and Toxicology, 2021).

Where two headings read alike, the source gives them in different places.

One data set relates to ZFL cells. Further details: method as in Eknefelt [2018]. As to conditions: TCDD; same cellular context, identical exposure concentrations; ref Eknefelt [2018]; cited from earlier work.
Data set [1] deals with NR1I2 (nuclear receptor subfamily 1, group I, member 2). Further details: method as in ToxCast database, CompTox dashboard. As to conditions: ATG_PXRE_CIS_up; ref ToxCast database, CompTox dashboard; cited from earlier work.
Data set [2] addresses AR (androgen receptor). Further details: method as in ToxCast database, CompTox dashboard. As to conditions: TOX21_AR_LUC_MDAKB2_Agonist_3uM_Nilutamide; ref ToxCast database, CompTox dashboard; cited from earlier work.
Data set [3] deals with NR1I3 (nuclear receptor subfamily 1, group I, member 3). Further details: method as in ToxCast database, CompTox dashboard. As to conditions: TOX21_CAR_Agonist; ref ToxCast database, CompTox dashboard; cited from earlier work.
For data set [4], the target named is ATAD5 (ATPase family, AAA domain containing 5). Set-up: method as in ToxCast database, CompTox dashboard. As to conditions: TOX21_ELG1_LUC_Agonist; ref ToxCast database, CompTox dashboard; cited from earlier work.
A further data set has as its target GLI3 (DNA binding). Further details: method as in ToxCast database, CompTox dashboard. As to conditions: TOX21_SSH_3T3_GLI3_Agonist; ref ToxCast database, CompTox dashboard; cited from earlier work.
Data set [5] concerns NR1I2 (nuclear receptor subfamily 1, group I, member 2). Further details: method as in ToxCast database, CompTox dashboard. As to conditions: ATG_PXR_TRANS_up; ref ToxCast database, CompTox dashboard; cited from earlier work.
For data set [6], the target named is ESRRA (estrogen-related receptor alpha). Further details: method as in ToxCast database, CompTox dashboard. As to conditions: TOX21_PGC_ERR_Agonist; ref ToxCast database, CompTox dashboard; cited from earlier work.
Data set [7] concerns the target VDR (vitamin D (1,25-dihydroxyvitamin D3) receptor). Further details: method as in ToxCast database, CompTox dashboard. As to conditions: ATG_VDRE_CIS_up; ref ToxCast database, CompTox dashboard; cited from earlier work.
Data set [8] deals with NFE2L2 (nuclear factor, erythroid 2-like 2). Set-up: method as in ToxCast database, CompTox dashboard. As to conditions: ATG_NRF2_ARE_CIS_up; ref ToxCast database, CompTox dashboard; cited from earlier work.
The test system of data set [9] is AHR (aryl hydrocarbon receptor). Further details: method as in ToxCast database, CompTox dashboard. As to conditions: TOX21_AhR_LUC_Agonist; ref ToxCast database, CompTox dashboard; cited from earlier work.
Data set [10] deals with FOS (FBJ murine osteosarcoma viral oncogene homolog). Further details: method as in ToxCast database, CompTox dashboard. As to conditions: ATG_AP_1_CIS_up; ref ToxCast database, CompTox dashboard; cited from earlier work.
The subject of another data set is ARE (channel 1). Further details: method as in ToxCast database, CompTox dashboard. As to conditions: TOX21_ARE_BLA_Agonist_ch1; ref ToxCast database, CompTox dashboard; cited from earlier work.
Data set [11] has as its system AHR (aryl hydrocarbon receptor). Set-up: method as in ToxCast database, CompTox dashboard. As to conditions: ATG_Ahr_CIS_up; ref ToxCast database, CompTox dashboard; cited from earlier work.
Data set [12] has as its target AR (androgen receptor). Further details: method as in ToxCast database, CompTox dashboard. As to conditions: TOX21_AR_LUC_MDAKB2_Agonist; ref ToxCast database, CompTox dashboard; cited from earlier work.
Another data set deals with HDAC (hydrolase). Further details: method as in ToxCast database, CompTox dashboard. As to conditions: TOX21_HDAC_Inhibition; ref ToxCast database, CompTox dashboard; cited from earlier work.
In data set [13] the test system is NFE2L2 (nuclear factor, erythroid 2-like 2). Further details: method as in ToxCast database, CompTox dashboard. As to conditions: TOX21_ARE_BLA_agonist_ratio; ref ToxCast database, CompTox dashboard; cited from earlier work.
The target in data set [14] is ESR1 (estrogen receptor 1). Further details: method as in ToxCast database, CompTox dashboard. As to conditions: TOX21_ERa_LUC_VM7_Agonist; ref ToxCast database, CompTox dashboard; cited from earlier work.
The next data set concerns HEK293 (cell cycle). Further details: method as in ToxCast database, CompTox dashboard. As to conditions: TOX21_RT_HEK293_FLO_40hr_viability; ref ToxCast database, CompTox dashboard; cited from earlier work.
In data set [15] the test system is PPARG (peroxisome proliferator-activated receptor gamma). Set-up: method as in ToxCast database, CompTox dashboard. As to conditions: ATG_PPARg_TRANS_up; ref ToxCast database, CompTox dashboard; cited from earlier work.
In data set [16] the target is ESRRA (estrogen-related receptor alpha). Set-up: method as in ToxCast database, CompTox dashboard. As to conditions: TOX21_ERR_Agonist; ref ToxCast database, CompTox dashboard; cited from earlier work.
The test system of the next data set is ARE (channel 2). Set-up: method as in ToxCast database, CompTox dashboard. As to conditions: TOX21_ARE_BLA_Agonist_ch2; ref ToxCast database, CompTox dashboard; cited from earlier work.
In data set [17] the target is ESR1 (estrogen receptor 1). Set-up: method as in ToxCast database, CompTox dashboard. As to conditions: ATG_ERE_CIS_up; ref ToxCast database, CompTox dashboard; cited from earlier work.

Regarding `Clc1cc2c(cc1Cl)Oc1cc(Cl)c(Cl)cc1O2` [TCDD, 2,3,7,8-tetrachlorodibenzo-p-dioxin], the “cytotoxicity, historical data” value with ZFL cells is on record as “no TCDD-induced cytotoxicity”.
As for `O=c1cc(-c2ccccc2)oc2ccc3ccccc3c12` [BNF, β-naphthoflavone], the AC50 is 2.24 µM in data set [1]; 3.69 µM on AR (androgen receptor) [2]; 6.07 µM in [3]; 0.0474 µM in [4]; 0.0339 µM on GLI3 (DNA binding); 6.58 µM in [5]. Further, the AC50 in data set [6] is 0.189 µM; in data set [7] it was 4.28 µM; in [8], 0.157 µM; in data set [9], […]; in data set [10], 0.156 µM; in the data set on ARE (channel 1) it was 0.837 µM. In addition, the AC50 was […] in data set [11]; 5.43 µM on AR (androgen receptor) [12]; 0.513 µM at HDAC (hydrolase); 0.985 µM in [13]; 5.15 µM in data set [14]; 5.05 µM in the data set with HEK293 (cell cycle). For the same molecule, the AC50 in data set [15] is 0.75 µM; in [16] it was 0.0672 µM; in the data set on ARE (channel 2) it was 1.22 µM; in data set [17] it was 1.06 µM.
